Data as given in patent US6235707A, “Anticoagulant peptidyl-arginine aldehyde derivatives” (Gyogyszerkutato Intezet Kft., priority 1996, dated 2001).

Target: urokinase (UK) (Homo sapiens, UniProt P00749)
Test: fibrin-plate method, plasmin formation induced by urokinase
Format: biochemical
Description: The inhibitory effect of the new compounds of the invention on plasmin (PL) as well as on plasmin formation induced by tissue plasminogen activator (tPA) and urokinase (UK) was examined by the fibrin-plate method [D. Bagdy et al.: Thromb. Haemost. 67, 325 (1992)]. Compounds C1 and C5 served as controls. […] V. Jackson et al.: J. Cardiovasc. Pharmacol. 21, 587 (1993))]. In Table 4 the results obtained with the new compounds 1 and 2 as well as those with controls C1 and C5 are presented as an example.

`CCOC(=O)N[C@H](CC1CCC1)C(=O)N1CCC[C@H]1C(=O)N[C@H](C=O)CCCNC(=N)N` [Example 1, Ethoxycarbonyl-3-cyclobutyl-D-alanyl-L-prolyl-L-arginine aldehyde] was tested, and the IC50 (fibrin plate, hydrolysed area reduced to 50% of control) was 120 µM, the “B: relative efficiency, UK” value (related to the activity of C1 (1/IC50 = 1)) was 0.7 and the “activity against UK, times lower than that of compound C5” value (text b147, third of three enzymes) was 39 times.
